Where only a bound is given, the exact number is not on record here.

A short description of one series: Metabolic stability assay (substrate depletion) in human liver cytosol fractions. To be noted: both, human, liver cytosol fractions, pH 7.4, t1/2 [min] (Left), external validation, sheet Human, left compound.
Experimental: Our assay (384-well format) consisted of two parts; a robotic system for incubation and sample clean up and an integrated LC/MS method to calculate the percent remaining of parent compound. Briefly, each reaction mixture (110 μL) consisted of a test compound (1 μM) and either human or mouse cytosol fractions (2 mg/mL) in phosphate buffer (100 mM) at pH 7.4. Samples were incubated in 384-well plates at 37 °C for 0, 5, 10, 15, 30 and 60 min. Sample analysis and t1/2 calculations were performed using a previously described method [15]. […] A set of control compounds for low and high cytosolic stability were routinely run in each plate.
As usually defined, the half-life is the time needed for the level to fall by half in the phase considered. Low readings indicate rapid decline, high ones slow decline. Molecule `O=C(c1ccsc1)N1CCC(Oc2cccc(F)c2)C1` (centres unmarked) [O=C(c1ccsc1)N1CCC(Oc2cccc(F)c2)C1] displayed a half-life at 1 μM of 1.38 h.

Take `N#Cc1cccc(CN2CC(COc3ccccc3)C3(C2)CN(c2ccccc2)C3)c1` (centres unmarked): the half-life at 1 μM amounted to 0.693 h.

For the molecule `N#Cc1ccc(C(=O)N2CCCOCCNC(=O)CC2)cc1` [N#Cc1ccc(C(=O)N2CCCOCCNC(=O)CC2)cc1], the half-life at 1 μM was > 2 h.

Turning to `CN1c2cc(C(=O)Nc3ccc(C#N)cc3)ccc2C(=O)N2CCCCC21` (centres unmarked), the half-life at 1 μM was > 2 h.

Still in this series, the particulars now being: both, human, liver cytosol fractions, pH 7.4, t1/2 [min] (Right), external validation, sheet Human, right compound.
Regarding `COc1ccc(CN2CC[C@@](C)(O)[C@H](N3CCCC3)C2)cc1`, the half-life at 1 μM is > 2 h.

For `CNC(=O)[C@@H]1CN(C(=O)c2cccc(OC)c2)C[C@H]1COC`, the half-life at 1 μM is > 2 h.

`COc1ccc(CN2CCC(N3Cc4cccn4C3=O)CC2)cc1` [COc1ccc(CN2CCC(N3Cc4cccn4C3=O)CC2)cc1]: the half-life at 1 μM is > 2 h.

Turning to `COCCOC1CCN(C(=O)Nc2ccccc2)CC1` [COCCOC1CCN(C(=O)Nc2ccccc2)CC1], the half-life at 1 μM was > 2 h.

`O=C(c1cccs1)N1CCC(Oc2ccccc2)C1` (centres unmarked) [O=C(c1cccs1)N1CCC(Oc2ccccc2)C1] registered a half-life at 1 μM of 0.638 h.

With `O=C(N1CCN(S(=O)(=O)c2ccccc2)CC1)N1CC2CC(C1)[C@H]1CCCC(=O)N1C2` (some centres unmarked), the half-life at 1 μM was > 2 h.

`CCOCCOC1CCN(C(=O)Nc2ccccc2)CC1` [CCOCCOC1CCN(C(=O)Nc2ccccc2)CC1]: the half-life at 1 μM is > 2 h.

With `COc1ccc(CN2CC[C@H](c3nnc(C)o3)C2)cc1` [COc1ccc(CN2CC[C@H](c3nnc(C)o3)C2)cc1], the half-life at 1 μM is > 2 h.

Take `COc1ccc(CN2CCC3(COc4ccccc4C(=O)N3)C2)cc1` (centres unmarked) [COc1ccc(CN2CCC3(COc4ccccc4C(=O)N3)C2)cc1]: the half-life at 1 μM turned out to be 0.578 h.

Take `COc1cccc(-c2c(C(=O)N3CCCCC3)nc3sccn23)c1` [COc1cccc(-c2c(C(=O)N3CCCCC3)nc3sccn23)c1]: the half-life at 1 μM amounted to 1.9 h.

On to `COc1ccc(CN2CCC(N3CCNC3=O)CC2)cc1` [COc1ccc(CN2CCC(N3CCNC3=O)CC2)cc1], for which the half-life at 1 μM is > 2 h.

In the case of `COc1cccc(-c2cn3c(n2)N(C(=O)c2ccoc2)CCC3)c1`, the half-life at 1 μM was found to be 1.86 h.

`COc1ccc(CN2CC(Oc3ccc(F)c(F)c3)C2)cc1` [COc1ccc(CN2CC(Oc3ccc(F)c(F)c3)C2)cc1] registered a half-life at 1 μM of 0.5 h.

`COc1cccc(CN2CCOC[C@H](O)C2)c1` [COc1cccc(CN2CCOC[C@H](O)C2)c1] returned a half-life at 1 μM of 0.47 h.

The molecule `COc1ccc(CN2CC(Oc3ccc(F)cc3C)C2)cc1` [COc1ccc(CN2CC(Oc3ccc(F)cc3C)C2)cc1] returned a half-life at 1 μM of 0.35 h.

Molecule `CC(C)CN1C(=O)c2cccn2CC1C(=O)N1CCN(C)CC1` (centres unmarked) [CC(C)CN1C(=O)c2cccn2CC1C(=O)N1CCN(C)CC1] had a half-life at 1 μM of 1.79 h. Compared with the last molecule, the half-life at 1 μM is about 5.1-fold higher.

For the molecule `COc1ccc(CN2CC(N3CCc4ccccc43)C2)cc1` [COc1ccc(CN2CC(N3CCc4ccccc43)C2)cc1], the half-life at 1 μM came to 1.37 h. This half-life at 1 μM and that of the molecule before are within 1.5-fold of each other.

As to `COc1ccccc1CN1CCC2(CC1)CC(O)CCO2` (centres unmarked) [COc1ccccc1CN1CCC2(CC1)CC(O)CCO2], the half-life at 1 μM was > 2 h.

Take `O=C(c1ccoc1)N1CCC(Oc2ccccc2)C1` (centres unmarked) [O=C(c1ccoc1)N1CCC(Oc2ccccc2)C1]: the half-life at 1 μM is > 2 h.

Regarding `COc1ccc(CN2CCC(N3CCOC3=O)CC2)cc1` [COc1ccc(CN2CCC(N3CCOC3=O)CC2)cc1], the half-life at 1 μM is > 2 h.

With `COc1cccc(-c2c(C(=O)NC3CC3)nc3sccn23)c1` [COc1cccc(-c2c(C(=O)NC3CC3)nc3sccn23)c1], the half-life at 1 μM was > 2 h.

Consider `COc1ccc(C(=O)N2C[C@@H](CO)[C@H](N(C)C)C2)cc1`, for which the half-life at 1 μM is > 2 h.

`CCN1CCN(C(=O)c2nc3sccn3c2-c2cccc(OC)c2)CC1`: the half-life at 1 μM is > 2 h.

Turning to `COc1ccc(CN2CC(Oc3ccc(OC)cc3)C2)cc1` [COc1ccc(CN2CC(Oc3ccc(OC)cc3)C2)cc1], the half-life at 1 μM is > 2 h.

As for `CN1CCC(OC2CCN(C(=O)c3ccccc3)CC2)CC1` [CN1CCC(OC2CCN(C(=O)c3ccccc3)CC2)CC1], the half-life at 1 μM is > 2 h.

In the case of `COc1cccc(CN2CC[C@H](c3nnc(-c4ccco4)o3)C2)c1`, the half-life at 1 μM stood at 1.97 h.

As to `CC1(c2ccccc2)N(Cc2ccccc2)C(=O)OC12CCN(Cc1ccc(C(=O)O)cc1)CC2` (centres unmarked), the half-life at 1 μM was > 2 h.

`Cc1cc2cc(-c3c(C)noc3C)nc(Nc3ccccc3)c2o1` [Cc1cc2cc(-c3c(C)noc3C)nc(Nc3ccccc3)c2o1] showed a half-life at 1 μM of 0.593 h.

As to `COc1ccc(CN2CCC3(CC2)CC(=O)c2ccccc2O3)cc1` [COc1ccc(CN2CCC3(CC2)CC(=O)c2ccccc2O3)cc1], the half-life at 1 μM was > 2 h.

Consider `COc1cccc(CN2CC[C@H](c3nc4ccccc4[nH]3)C2)c1`, for which the half-life at 1 μM was > 2 h.

As to `CCOc1cc(=O)n2c(c1C(=O)Nc1ccc(S(N)(=O)=O)cc1)CCCC2`, the half-life at 1 μM is > 2 h.

Turning to `COc1ccc(C(=O)N2CCC3(CCC3OC)CC2)cc1` (centres unmarked) [COc1ccc(C(=O)N2CCC3(CCC3OC)CC2)cc1], the half-life at 1 μM was 1.17 h.

Take `COc1cccc(-c2cn3c(n2)N(C(=O)c2cccs2)CCC3)c1`: the half-life at 1 μM is > 2 h.

In the case of `COc1cccc(-c2c(C(=O)Nc3ccc(C)cc3)nc3sccn23)c1`, the half-life at 1 μM amounted to 1.55 h.

Still in this series, the particulars now being: both, human, liver cytosol fractions, pH 7.4, t1/2 [min] (left), in-house library pair, human transforms, left compound.
`O=C(c1ccsc1)N1CCC(Oc2cccc(F)c2)C1` (centres unmarked) [O=C(c1ccsc1)N1CCC(Oc2cccc(F)c2)C1]: the half-life at 1 μM turned out to be 1.38 h.

Consider `N#Cc1cccc(CN2CC(COc3ccccc3)C3(C2)CN(c2ccccc2)C3)c1` (centres unmarked), for which the half-life at 1 μM stood at 0.693 h.

Regarding `N#Cc1ccc(C(=O)N2CCCOCCNC(=O)CC2)cc1` [N#Cc1ccc(C(=O)N2CCCOCCNC(=O)CC2)cc1], the half-life at 1 μM is > 2 h.

The series is the same for the next values; noted with them: external validation, sheet Human, left compound.
Consider `O=C(c1ccoc1)N1CCC(Oc2cccc(F)c2)C1` (centres unmarked) [O=C(c1ccoc1)N1CCC(Oc2cccc(F)c2)C1], for which the “t1/2 [min] (Left)” value worked out at 70.5 min.

As to `N#Cc1cccc(CN2CCOC[C@H]2c2nc(-c3ccc(F)cc3)c[nH]2)c1`, the “t1/2 [min] (Left)” value came to 94.7 min.

On to `Cc1cc2cc(-c3c(C)noc3C)nc(Nc3cccc(F)c3)c2o1`, for which the “t1/2 [min] (Left)” value was determined as 8.2 min.

Regarding `O=C(NCCc1c[nH]cn1)c1ccc(-c2ncc3cnc(-c4cccc(F)c4)cn23)cc1`, the “t1/2 [min] (Left)” value came to 14.9 min.

With `N#Cc1ccc(CN2CCC3(COc4ccccc4C(=O)N3)C2)cc1` (centres unmarked), the “t1/2 [min] (Left)” value is recorded as 38.4 min.

`N#Cc1cccc(-c2cn3c(n2)N(C(=O)c2ccco2)CCC3)c1`: the “t1/2 [min] (Left)” value is given as 36.7 min.

As to `N#Cc1cccc(CN2CCOC[C@H](O)C2)c1` [N#Cc1cccc(CN2CCOC[C@H](O)C2)c1], the “t1/2 [min] (Left)” value is 51.1 min.

For `N#Cc1ccccc1CN1CCC2(CC1)CC(O)CCO2` (centres unmarked) [N#Cc1ccccc1CN1CCC2(CC1)CC(O)CCO2], the “t1/2 [min] (Left)” value is on record as 80.3 min.

Take `N#Cc1ccc(CN2CC(Oc3ccc(F)c(F)c3)C2)cc1` [N#Cc1ccc(CN2CC(Oc3ccc(F)c(F)c3)C2)cc1]: the “t1/2 [min] (Left)” value came to 71.4 min.

Regarding `N#Cc1ccc(CN2C[C@@H](CO)[C@H](c3ccncc3)C2)cc1`, the “t1/2 [min] (Left)” value is 107.1 min.

Regarding `O=c1c2nc(Nc3cccc(F)c3)ccc2ncn1-c1cccnc1` [O=c1c2nc(Nc3cccc(F)c3)ccc2ncn1-c1cccnc1], the “t1/2 [min] (Left)” value is 96.4 min.

On to `Fc1cccc(-c2cnc(Nc3cncnc3)c3c2CCO3)c1` [Fc1cccc(-c2cnc(Nc3cncnc3)c3c2CCO3)c1], for which the “t1/2 [min] (Left)” value turned out to be 9.6 min.

In the case of `COC1CCC12CCN(C(=O)c1ccc(C#N)cc1)CC2` (centres unmarked) [COC1CCC12CCN(C(=O)c1ccc(C#N)cc1)CC2], the “t1/2 [min] (Left)” value came to 79.2 min.

For `Fc1cccc(Nc2ncc(-c3cccnc3)c3c2OCC3)c1` [Fc1cccc(Nc2ncc(-c3cccnc3)c3c2OCC3)c1], the “t1/2 [min] (Left)” value is given as 76.6 min.

On to `O=C(Nc1cnc(-c2ccccc2)nc1)c1cccc(F)c1` [O=C(Nc1cnc(-c2ccccc2)nc1)c1cccc(F)c1], for which the “t1/2 [min] (Left)” value amounted to 52 min.

On to `CN(Cc1cccc(F)c1)C1CCOc2ccccc21` (centres unmarked) [CN(Cc1cccc(F)c1)C1CCOc2ccccc21], for which the “t1/2 [min] (Left)” value amounted to 8.6 min.

Consider `Cn1ccc(NC(=O)c2ccc(-c3ncc4cnc(-c5cccc(F)c5)cn34)cc2)n1`, for which the “t1/2 [min] (Left)” value was found to be 33.2 min.

`Fc1cccc(-c2noc(-c3nc(-c4ccncc4)no3)n2)c1` [Fc1cccc(-c2noc(-c3nc(-c4ccncc4)no3)n2)c1]: the “t1/2 [min] (Left)” value is recorded as 26.4 min.

`Cc1ccccc1-c1n[nH]c2ncc(-c3cccc(F)c3)nc12` [Cc1ccccc1-c1n[nH]c2ncc(-c3cccc(F)c3)nc12]: the “t1/2 [min] (Left)” value is reported as 49 min.

As for `COc1cncc(Nc2ncc(-c3cccc(F)c3)c3c2OCC3)c1` [COc1cncc(Nc2ncc(-c3cccc(F)c3)c3c2OCC3)c1], the “t1/2 [min] (Left)” value worked out at 80.3 min.

As to `N#Cc1cccc(-c2c(C(=O)N3CCCCC3)nc3sccn23)c1`, the “t1/2 [min] (Left)” value worked out at 103.4 min.

In the case of `Fc1cccc(-c2c[nH]c([C@@H]3COCCN3Cc3c[nH]cn3)n2)c1`, the “t1/2 [min] (Left)” value turned out to be 59.3 min.

Turning to `CCOc1cc(=O)n2c(c1C(=O)Nc1ccc(C#N)cc1)CCCC2`, the “t1/2 [min] (Left)” value is listed as 101.4 min.

In the case of `Cc1cc(OC2CN(Cc3ccc(C#N)cc3)C2)ccc1F` [Cc1cc(OC2CN(Cc3ccc(C#N)cc3)C2)ccc1F], the “t1/2 [min] (Left)” value came out at 43.8 min.

Consider `CNC(=O)[C@@H]1CN(C(=O)c2cccc(C#N)c2)C[C@H]1COC`, for which the “t1/2 [min] (Left)” value came to 86.6 min.

For the molecule `Cc1ccc(NC(=O)c2nc3sccn3c2-c2cccc(C#N)c2)cc1`, the “t1/2 [min] (Left)” value stood at 17.4 min.

In the case of `COc1ccc(-c2n[nH]c3ncc(-c4cccc(F)c4)nc23)c(C)c1`, the “t1/2 [min] (Left)” value amounted to 75.8 min.

Take `O=c1c2nc(Nc3cccc(F)c3)ccc2ncn1-c1ccccc1` [O=c1c2nc(Nc3cccc(F)c3)ccc2ncn1-c1ccccc1]: the “t1/2 [min] (Left)” value is given as 93.9 min.

For the molecule `O=C(c1cccs1)N1CCC(Oc2cccc(F)c2)C1` (centres unmarked) [O=C(c1cccs1)N1CCC(Oc2cccc(F)c2)C1], the “t1/2 [min] (Left)” value is reported as 17.4 min.

For the molecule `Cc1ccc(-c2noc([C@@H]3Cc4[nH]cnc4CN3Cc3cccc(C#N)c3)n2)cc1`, the “t1/2 [min] (Left)” value came to 63.4 min.

Regarding `Cn1cnc2ccc(Nc3cccc(F)c3)nc2c1=O` [Cn1cnc2ccc(Nc3cccc(F)c3)nc2c1=O], the “t1/2 [min] (Left)” value is listed as 115.2 min.

As for `N#Cc1cccc(CN2C[C@@H](CO)[C@H](c3ccccn3)C2)c1`, the “t1/2 [min] (Left)” value amounted to 57.4 min.

On to `Cc1cc(F)ccc1OC1CN(Cc2ccc(C#N)cc2)C1` [Cc1cc(F)ccc1OC1CN(Cc2ccc(C#N)cc2)C1], for which the “t1/2 [min] (Left)” value is reported as 35.4 min.

The values are drawn from PMC7140498, “Predicting liver cytosol stability of small molecules” (Journal of Cheminformatics, 2020).
